Experimental data reported in US20260200923A1, “HETEROCYCLIC COMPOUNDS TARGETING THE NUDT5 PROTEIN” (Oxford University Innovation Limited, priority 2022, published 2026).

Tests used:
Format in all cases: cell-based
[1] = target: T1, luciferase-tagged NUDT5 (Homo sapiens, UniProt Q9UKK9); test: NanoBRET target engagement assay; conditions: live cells, 2 h
T1 construct: expressed in transfected cells; host or cells: HEK293T
Protocol: For NanoBRET target engagement assay, intracellular TE Nano-Glo substrate/inhibitor (N2161, Promega) was used according to the manufacturer's instruction. In brief, 200,000 HEK293T cells/ml was seeded in a T-75 flask. N-terminal NanoLuciferse NUDT5 was reverse transfected into the cells using Fugene HD transfection reagent (E2312, Promega). After 24 h the transfected HEK293 (200,000 cells/ml) were replated onto a 384-well plate containing compounds. 2.5 nM NU008116a was used as the final tracer concentration. After 2 h, NanoLuc substrate and inhibitor was added into each well and the signals were measured by PHERAstar Microplate Reader.
Compounds were dispensed in the 384-well plates by using Echo Acoustic Dispenser.

[2] = test system: HAP-1 cells; test: 6-thioguanine assay (CellTiter-Glo viability); conditions: 0.2 μg/ml 6-thioguanine, 72 h; HAP1 (and NB4, FIG. 11)
Protocol: NB-4 and HAP1 cells (1000 cells/well in 40 uL) were seeded onto a 384-well plate containing compounds. DMSO or 0.2 μg/ml 6-thioguanine (A4882, Sigma-Aldrich) was added into respective wells. After 72 h incubation cell viability was measured by using CellTiter-Glo 2.0 Assay (G9242, Promega). Compounds in the 384-well plates were prepared by using Echo Acoustic Dispenser.

[3] = target: T2, NUDT5 (Homo sapiens, UniProt Q9UKK9); test: NUDT5 degradation by Western blot in HEK293 cells; parameters: endogenous in cells; host or cells: HEK293 (also CRBN knock-out HEK293 for A13)
Protocol: (§1) For Western blots, proteins were separated on polyacrylamide gels with SDS running buffer (50 mM Tris, 380 mM Glycine, 7 mM SDS) and transferred to PVDF membranes. All membranes were then blocked with blocking buffer (5% w/v milk powder, BioRad) in TBST (50 mM Tris (tris(hydroxymethylaminomethane), 150 mM NaCl, 0.05% (v/v) Tween 20, adjusted to pH 7.6) Proteins were probed with antibodies against phospho-AMPK (50081S, 1:2000, Cell Signaling Technologies), AMPK (5832S, 1:2000, Cell Signaling Technologies), PML (ab179466, 1:1000, abeam), PARP8 (NBP213733, 1:1000, Novus Biologicals), ATF2/7 (82870, 1:1000, Cell Signaling Technologies), alpha-Tubulin (ab7291, 1:1000, Abeam), phospho-UBTF (ab182583, 1:1000, abeam), UBTF (HPA006385, 1:1000, Sigma), RBM38 (AV40862, 1:1000, Sigma), or NUDT5 (ab129172, 1:1000, abeam), detected by HRP (horse-radish peroxidase) conjugated donkey anti-rabbit IgG antibody (Pierce) or donkey anti-mouse antibody IgG antibody (Pierce) and visualized with Clarity ECL Western Blotting substrate (BioRad), according to provided protocol.

[4] = test system: WT HAP1 cells; test: growth of WT HAP1 cells; conditions: 72 h
Protocol: (§2) HAP1 (KBM7-derived, Horizon Discovery, C859), and HAP1 MTHFD1^KO, MTHFD1^K56R, and MTHFD1^K386E cell lines were cultured in Iscove's Modified Dulbecco's Medium (IMDM, Sigma), supplemented with 10% Fetal Bovine Serum (FBS, Sigma) and 1% Penicillin/Streptomycin (P/S, Sigma).
(§3) MTHFD1^KO cells in dialyzed FBS media were treated with a single nucleotide or folic acid metabolite for 72 hours. Cells were then stained with Hoechst, imaged, and counted using an Operetta (Perkin Elmer). For the AMPK activator studies, cells were stained with Hoechst, imaged, and counted using an Opera (Perkin Elmer). Similarly, MTHFD1^K56R cells in dialyzed FBS media were treated with adenosine for 72 hours. Cells were then stained with Hoechst, imaged, and counted using an Operetta (Perkin Elmer).

[5] = target: T2, NUDT5; test: NUDT5 degradation by Western blot in HAP-1 cells; parameters: endogenous in cells
Protocol: as §1

[6] = test system: MTHFD1^K56R cells; test: growth of MTHFD1^K56R cells in adenosine-containing media; conditions: 72 h
Protocol: as §2, §3

Cn1c(=O)c2c(nc(N3CCN(C(=O)N4CCC(CN5CCN(c6ccc7c(c6)C(=O)N(C6CCC(=O)NC6=O)C7=O)CC5)CC4)CC3)n2Cc2nnc(-c3ccc(Cl)c(Cl)c3)o2)n(C)c1=O (stereo not drawn) [dNUDT5, 7-((5-(3,4-dichlorophenyl)-1,3,4-oxadiazol-2-yl)methyl)-8-(4-(4-((4-(2-(2,6-dioxopiperidin-3-yl)-1,3-dioxoisoindolin-5-yl)piperazin-1-yl)methyl)piperidine-1-carbonyl)piperazin-l-yl)-1,3-dimethyl-3,7-dihydro-1H-purine-2,6-dione]
NUDT5 engagement / recruitment [1]: engaged their cognate target NUDT5 in live cells | rescue of 6-TG toxicity [2]: able to rescue 6-TG toxicity | NUDT5 degradation at 100 nM, 20 h (%) ([3]; 100 nM, 20 h): 96% | concentration beyond which degradation efficiency declines (hook effect) ([3]; HEK293 and HAP-1 cells): > 300 nM | DC50 ([3]; HEK293 cells): 0.5 nM | dependence of NUDT5 degradation (rescue experiments) ([3]; competition with TH5427, MLN4924, MG132, HEK293 cells): E3 ligase- and proteasome-dependent | effect on viability of WT cells [4]: did not affect the viability of WT cells | DC50 [5]: 0.3 nM | concentration of maximum rescue of cell viability ([6]; adenosine supplementation): 100 nM | effect on adenosine toxicity / viability ([6]; adenosine-containing media): prevented adenosine toxicity
